Read-outs that look alike come from different tables or passages of the source.
What was measured:
SN12C = test: cells; set-up: species or system NCI human tumour cell line panel; NCI one-dose anti-proliferative screen, human tumour cell line panel, growth inhibition percent (GI%); conditions: Homo sapiens, SN12C; growth inhibition (GI%), single dose
Experimental: (§1) Ten of the newly synthesised 1,2,3-triazolo benzenesulfonamide derivatives were selected by NCI (Bethesda, MD) for evaluating their anti-proliferative activity. The selected compounds were subjected to a primary in vitro one-dose ([…]) anti-proliferative assay against 57 human tumour cell lines following the previously reported method[30] and their obtained growth inhibition percent (GI%) are presented in Table 2. A subset of ten triazolo-benzenesulfonamides (3, 5, 6, 7, 9, 11, 16–18, and 20) were selected and subjected to an in vitro anti-proliferative screening against a panel of 57 cancer cell lines at NCI at an initial high dose ([…]). The human cell lines used were derived from nine cancer types: leukaemia, lung, colon, CNS, melanoma, ovarian, renal, prostate and breast cancers.

HCT-15 = test: cells; set-up: species or system NCI human tumour cell line panel; NCI one-dose anti-proliferative screen, human tumour cell line panel, growth inhibition percent (GI%); conditions: Homo sapiens, HCT-15; growth inhibition (GI%), single dose
Experimental: as §1

M14 = test: cells; set-up: species or system NCI human tumour cell line panel; NCI one-dose anti-proliferative screen, human tumour cell line panel, growth inhibition percent (GI%); conditions: Homo sapiens, M14; growth inhibition (GI%), single dose
Experimental: as §1

IGROV1 = test: cells; set-up: species or system NCI human tumour cell line panel; NCI one-dose anti-proliferative screen, human tumour cell line panel, growth inhibition percent (GI%); conditions: Homo sapiens, IGROV-1; growth inhibition (GI%), single dose
Experimental: as §1

OVCAR-4 = test: cells; set-up: species or system NCI human tumour cell line panel; NCI one-dose anti-proliferative screen, human tumour cell line panel, growth inhibition percent (GI%); conditions: Homo sapiens, OVCAR-4; growth inhibition (GI%), single dose
Experimental: as §1

HOP-92 = test: cells; set-up: species or system NCI human tumour cell line panel; NCI one-dose anti-proliferative screen, human tumour cell line panel, growth inhibition percent (GI%); conditions: Homo sapiens, HOP-92; growth inhibition (GI%), single dose
Experimental: as §1

HCT-116 = test: cells; set-up: species or system NCI human tumour cell line panel; NCI one-dose anti-proliferative screen, human tumour cell line panel, growth inhibition percent (GI%); conditions: Homo sapiens, HCT-116; growth inhibition (GI%), single dose
Experimental: as §1

NCI-H23 = test: cells; set-up: species or system NCI human tumour cell line panel; NCI one-dose anti-proliferative screen, human tumour cell line panel, growth inhibition percent (GI%); conditions: Homo sapiens, NCI-H23; growth inhibition (GI%), single dose
Experimental: as §1

NCI-H322M = test: cells; set-up: species or system NCI human tumour cell line panel; NCI one-dose anti-proliferative screen, human tumour cell line panel, growth inhibition percent (GI%); conditions: Homo sapiens, NCI-H322M; growth inhibition (GI%), single dose
Experimental: as §1

MDA-MB-435 = test: cells; set-up: species or system NCI human tumour cell line panel; NCI one-dose anti-proliferative screen, human tumour cell line panel, growth inhibition percent (GI%); conditions: Homo sapiens, MDA-MB-435; growth inhibition (GI%), single dose
Experimental: as §1

SNB-75 = test: cells; set-up: species or system NCI human tumour cell line panel; NCI one-dose anti-proliferative screen, human tumour cell line panel, growth inhibition percent (GI%); conditions: Homo sapiens, SNB-75; growth inhibition (GI%), single dose
Experimental: as §1

HL-60(TB) = test: cells; set-up: species or system NCI human tumour cell line panel; NCI one-dose anti-proliferative screen, human tumour cell line panel, growth inhibition percent (GI%); conditions: Homo sapiens, HL-60; growth inhibition (GI%), single dose
Experimental: as §1

HOP-62 = test: cells; set-up: species or system NCI human tumour cell line panel; NCI one-dose anti-proliferative screen, human tumour cell line panel, growth inhibition percent (GI%); conditions: Homo sapiens, HOP-62; growth inhibition (GI%), single dose
Experimental: as §1

SR = test: cells; set-up: species or system NCI human tumour cell line panel; NCI one-dose anti-proliferative screen, human tumour cell line panel, growth inhibition percent (GI%); conditions: Homo sapiens, SR; growth inhibition (GI%), single dose
Experimental: as §1

A549/ATCC = test: cells; set-up: species or system NCI human tumour cell line panel; NCI one-dose anti-proliferative screen, human tumour cell line panel, growth inhibition percent (GI%); conditions: Homo sapiens, A549; growth inhibition (GI%), single dose
Experimental: as §1

SW-620 = test: cells; set-up: species or system NCI human tumour cell line panel; NCI one-dose anti-proliferative screen, human tumour cell line panel, growth inhibition percent (GI%); conditions: Homo sapiens, SW-620; growth inhibition (GI%), single dose
Experimental: as §1

NCI/ADR-RES = test: cells; set-up: species or system NCI human tumour cell line panel; NCI one-dose anti-proliferative screen, human tumour cell line panel, growth inhibition percent (GI%); conditions: Homo sapiens, NCI/ADR-RES; growth inhibition (GI%), single dose
Experimental: as §1

hCA II = target: T1, hCA II (Homo sapiens, UniProt P00918); test: stopped-flow CO2 hydrase assay; type: biochemical
T1 construct: gene CA2; recombinant, obtained in-house as reported earlier; cytosolic
From the text: stopped-flow CO2 hydrase assay on hCA II

hCA I = target: T2, hCA I (Homo sapiens, UniProt P00915); test: stopped-flow CO2 hydrase assay; type: biochemical
T2 construct: gene CA1; recombinant, obtained in-house as reported earlier; cytosolic
From the text: stopped-flow CO2 hydrase assay on hCA I

hCA IV = target: T3, hCA IV (Homo sapiens, UniProt P22748); test: stopped-flow CO2 hydrase assay; type: biochemical
T3 construct: gene CA4; recombinant, obtained in-house as reported earlier
From the text: stopped-flow CO2 hydrase assay on hCA IV

hCA IX = target: T4, hCA IX (Homo sapiens, UniProt Q16790); test: stopped-flow CO2 hydrase assay; type: biochemical
T4 construct: gene CA9; recombinant, obtained in-house as reported earlier
From the text: stopped-flow CO2 hydrase assay on hCA IX

T2 sequence (P00915 2-261): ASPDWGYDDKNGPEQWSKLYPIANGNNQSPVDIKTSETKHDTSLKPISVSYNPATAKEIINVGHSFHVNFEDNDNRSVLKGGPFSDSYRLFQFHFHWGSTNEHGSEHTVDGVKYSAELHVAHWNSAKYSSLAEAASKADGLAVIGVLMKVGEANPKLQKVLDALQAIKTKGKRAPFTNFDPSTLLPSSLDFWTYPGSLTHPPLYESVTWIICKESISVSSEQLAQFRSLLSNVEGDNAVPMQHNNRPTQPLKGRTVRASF
T3 sequence (P22748 19-284): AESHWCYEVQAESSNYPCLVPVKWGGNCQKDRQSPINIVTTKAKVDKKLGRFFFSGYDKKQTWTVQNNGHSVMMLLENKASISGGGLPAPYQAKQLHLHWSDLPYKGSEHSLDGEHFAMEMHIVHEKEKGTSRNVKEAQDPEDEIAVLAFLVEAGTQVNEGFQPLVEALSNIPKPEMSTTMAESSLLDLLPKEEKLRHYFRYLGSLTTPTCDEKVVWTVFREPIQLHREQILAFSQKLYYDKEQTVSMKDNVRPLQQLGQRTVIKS

Row | Compound | inhibition at 10 µM (SN12C) | inhibition at 10 µM (HCT-15) | inhibition at 10 µM (M14) | inhibition at 10 µM (IGROV1) | inhibition at 10 µM (OVCAR-4) | inhibition at 10 µM (HOP-92) | inhibition at 10 µM (HCT-116) | inhibition at 10 µM (NCI-H23) | inhibition at 10 µM (NCI-H322M) | inhibition at 10 µM (MDA-MB-435) | inhibition at 10 µM (SNB-75) | inhibition at 10 µM (HL-60(TB)) | inhibition at 10 µM (HOP-62) | inhibition at 10 µM (SR) | inhibition at 10 µM (A549/ATCC) | inhibition at 10 µM (SW-620) | inhibition at 10 µM (NCI/ADR-RES) | Ki (hCA II) | Ki (hCA I) | Ki (hCA IV) | also measured
1 | N#Cc1nnn(-c2ccc(S(N)(=O)=O)cc2)c1NCC(=O)c1ccccc1 [compound 7, 7] | 2.9% | 1.7% | 2.6% | 0.5% | 10.2% | 13.5% | 5.1% | 2.1% | 8.8% | 8.3% | 20.1% | 11.6% | 8.3% | 9.3% | 6.7% | 2.8% |  |  |  |  | 
2 | N#Cc1c(-c2ccc(Cl)cc2)nc2c(nnn2-c2ccc(S(N)(=O)=O)cc2)c1N [compound 16, 4-(7-amino-5-(4-chlorophenyl)-6-cyano-3H-[1,2,3]triazolo[4,5-b]pyridin-3-yl)benzenesulfonamide] | 8.9% | 1.6% |  | 16.4% | 21.6% | 35.4% | 4.6% | 11.2% |  | 2.9% | 20% | 5.5% | 7.3% | 16.8% | 8.6% |  | 4.2% | 169 nM | 605 nM | 788 nM | Ki (hCA IX): 42.6 nM
3 | N#Cc1nnn(-c2ccc(S(N)(=O)=O)cc2)c1/N=C/c1ccc(Cl)cc1 [compound 9, 9] |  | 4.3% |  |  |  | 12.8% | 1.2% |  |  | 3.4% | 2.9% | 12.6% | 0.1% | 15.8% | 16.1% |  | 5.4% |  |  |  | 
4 | N#Cc1nnn(-c2ccc(S(N)(=O)=O)cc2)c1NS(=O)(=O)c1ccccc1 [compound 11, N-(4-cyano-1-(4-sulfamoylphenyl)-1H-1,2,3-triazol-5-yl)benzenesulfonamide] | 1.6% |  | 3.3% | 3.3% |  | 4.2% | 2.1% | 4.1% | 2.6% |  | 10.2% | 10.7% | 4.2% | 9.2% | 11.8% | 2.3% | 3.2% | 356 nM | 5550 nM | 4520 nM | Ki (hCA IX): 144 nM
5 | Nc1nc(=S)[nH]c2c1nnn2-c1ccc(S(N)(=O)=O)cc1 [compound 18, 4-(7-amino-5-thioxo-4,5-dihydro-3H-[1,2,3]triazolo[4,5-d]pyrimidin-3-yl)benzenesulfonamide] | 1.2% |  |  |  | 7.9% | 10.6% |  | 4.7% | 2.2% |  | 13.9% | 26.1% | 4.8% | 1.7% | 5.1% | 4.3% |  | 732 nM | 955 nM | 489 nM | Ki (hCA IX): 272 nM
6 | CN(C)c1ccc(-c2nc3c(nnn3-c3ccc(S(N)(=O)=O)cc3)c(N)c2C#N)cc1 [compound 17, 4-(7-amino-6-cyano-5-(4-(dimethylamino)phenyl)-3H-[1,2,3]triazolo[4,5-b]pyridin-3-yl)benzenesulfonamide] | 4.7% | 1.2% | 3.5% | 12.1% | 0.8% | 18.5% | 3.6% | 9.8% | 3.9% |  | 21.6% | 12.5% | 21.7% | 3.2% | 16.3% | 2.7% |  | 56.8 nM | 683 nM | 473 nM | Ki (hCA IX; CO2 […], […] Hepes pH […] Na2SO4, […] phenol red, […] min pre-incubation at room temperature): 35.1 nM
7 | CCn1c(=S)[nH]c2c(nnn2-c2ccc(S(N)(=O)=O)cc2)c1=N [compound 20, 4-(6-ethyl-7-imino-5-thioxo-4,5,6,7-tetrahydro-3H-[1,2,3]triazolo[4,5-d]pyrimidin-3-yl)benzenesulfonamide] | 0.9% |  |  |  |  | 18% |  | 9.4% | 3.2% |  | 3.3% | 8.9% |  | 7.5% | 12.2% |  | 2.2% | 930 nM | 909 nM | 875 nM | Ki (hCA IX): 242 nM
8 | N#Cc1nnn(-c2ccc(S(N)(=O)=O)cc2)c1N [compound 3, 3] | 1.1% |  | 2.7% |  | 4.1% | 8.2% | 7.1% |  | 0% | 3.1% | 15% | 6.5% | 8% | 3.5% | 4.2% | 5.1% |  |  |  |  | 
